# Source: US8399501B2, “Crystalline alkoxyimidazol-1-ylmethyl biphenyl carboxylic acid and methods for preparing thereof” (Theravance, Inc., priority 2010, dated 2013)
# Test: Solid state stability assessment (storage at 40° C. with desiccant, impurities by HPLC)
# Format: physicochemical
# Settings: for Δ % M + 28 (increase relative to time zero) / Δ % M − 28 (increase relative to time zero) / % M + 28 (ethyl ester imidazole impurity, HPLC area percentage) / % M − 28 (acid dihydroimidazole impurity, HPLC area percentage): closed vials, Molecular Sieve 4A dessicant
# Protocol: Samples of the crystalline 4′-{2-ethoxy-4-ethyl-5-[((S)-2-mercapto-4-methylpentanoyl-amino)methyl]imidazol-1-ylmethyl}-3′-fluorobiphenyl-2-carboxylic acid, the micronized crystalline compound, and the slurried micronized crystalline compound, about 15 mg each, were stored in multiple closed vials at 40° C. (with 1 g Molecular Sieve 4A dessicant included). At specific intervals, the entire contents of representative vials were analyzed by the following HPLC method:
# Column: Agilent Zorbox SB-C18, 4.6×250 mm, 5 μm (Part No. 880975-902). Mobile Phase A: 80% water, 20% MeCN, 0.01% TFA. Mobile Phase B: 20% water, 80% MeCN, 0.01% TFA. Flow rate: 1 mL/min. Injection Volume: 20 μL. Detector: 225 nm.
# Samples were prepared as 0.2-0.3 mg/mL stock solutions in 40% MeOH and 60% MeCN in water, depending on the solubility, for injection onto the HPLC. The amount of 4′-{2-ethoxy-4-ethyl-5-[(2-mercapto-4-methylpentanoylamino)methyl]imidazol-1-ylmethyl}-3′-fluorobiphenyl-2-carboxylic acid ethyl ester (M+28) and 4′-{4-ethyl-5-[(2-mercapto-4-methylpentanoylamino)methyl]-2-oxo-2,3-dihydroimidazol-1-ylmethyl}-3′-fluorobiphenyl-2-carboxylic acid (M−28) present were determined by HPLC area percentage (% AUC or area/area %).
# [1] = 2 weeks at 40° C., listed as Ex. 3
# [2] = 2 weeks at 40° C., listed as stable micronized acid imidazole
# [3] = 4 weeks at 40° C., listed as Ex. 3
# [4] = 4 weeks at 40° C., listed as stable micronized acid imidazole
# [5] = 2 weeks at 40° C., listed as Ex. 1
# [6] = 4 weeks at 40° C., listed as Ex. 1
# [7] = 2 weeks at 40° C., listed as Ex. 2
# [8] = 4 weeks at 40° C., listed as Ex. 2
smiles,measurement,setting,value
"CCOc1nc(CC)c(CNC(=O)[C@@H](S)CC(C)C)n1Cc1ccc(-c2ccccc2C(=O)O)cc1F [Example 3, 4′-{2-ethoxy-4-ethyl-5-[((S)-2-mercapto-4-methylpentanoylamino)methyl]imidazol-1-ylmethyl}-3′-fluorobiphenyl-2-carboxylic acid]",Δ % M + 28 (increase relative to time zero),2 weeks at 40° C.,about 0.01%
same,Δ % M − 28 (increase relative to time zero),2 weeks at 40° C.,about 0.05%
same,"% M + 28 (ethyl ester imidazole impurity, HPLC area percentage)",[1],0.07%
same,"% M − 28 (acid dihydroimidazole impurity, HPLC area percentage)",[1],0.20%
same,Δ % M + 28 (increase relative to time zero),[1],0.01%
same,Δ % M − 28 (increase relative to time zero),[1],0.05%
same,Δ % M + 28 (increase relative to time zero),[2],≤ 0.1%
same,Δ % M − 28 (increase relative to time zero),[2],≤ 0.1%
same,Δ % M + 28 (increase relative to time zero),4 weeks at 40° C.,about 0.02%
same,Δ % M − 28 (increase relative to time zero),4 weeks at 40° C.,about 0.09%
same,"% M + 28 (ethyl ester imidazole impurity, HPLC area percentage)",[3],0.08%
same,"% M − 28 (acid dihydroimidazole impurity, HPLC area percentage)",[3],0.24%
same,Δ % M + 28 (increase relative to time zero),[3],0.02%
same,Δ % M − 28 (increase relative to time zero),[3],0.09%
same,Δ % M + 28 (increase relative to time zero),[4],≤ 0.1%
same,Δ % M − 28 (increase relative to time zero),[4],≤ 0.1%
same,"% M + 28 (ethyl ester imidazole impurity, HPLC area percentage)","T = 0, 40° C., listed as Ex. 3",0.06%
same,"% M − 28 (acid dihydroimidazole impurity, HPLC area percentage)","T = 0, 40° C., listed as Ex. 3",0.15%
same,chemical degradation by HPLC after storage,"about 40° C. for at least 2 weeks, with a desiccant such as molecular sieves",minimal chemical degradation
"CCOc1nc(CC)c(CNC(=O)[C@@H](S)CC(C)C)n1Cc1ccc(-c2ccccc2C(=O)O)cc1F [Example 1, 4′-{2-Ethoxy-4-ethyl-5-[((S)-2-mercapto-4-methylpentanoylamino)methyl]imidazol-1-ylmethyl}-3′-fluorobiphenyl-2-carboxylic Acid]","% M + 28 (ethyl ester imidazole impurity, HPLC area percentage)",[5],0.05%
same,"% M − 28 (acid dihydroimidazole impurity, HPLC area percentage)",[5],0.04%
same,Δ % M + 28 (increase relative to time zero),[5],0.05%
same,Δ % M − 28 (increase relative to time zero),[5],−0.01%
same,"% M + 28 (ethyl ester imidazole impurity, HPLC area percentage)",[6],0.05%
same,"% M − 28 (acid dihydroimidazole impurity, HPLC area percentage)",[6],0.05%
same,Δ % M + 28 (increase relative to time zero),[6],0.05%
same,Δ % M − 28 (increase relative to time zero),[6],0%
same,"% M + 28 (ethyl ester imidazole impurity, HPLC area percentage)","T = 0, 40° C., listed as Ex. 1",0%
same,"% M − 28 (acid dihydroimidazole impurity, HPLC area percentage)","T = 0, 40° C., listed as Ex. 1",0.05%
"CCOc1nc(CC)c(CNC(=O)[C@@H](S)CC(C)C)n1Cc1ccc(-c2ccccc2C(=O)O)cc1F [Example 2, 4′-{2-ethoxy-4-ethyl-5-[((S)-2-mercapto-4-methylpentanoylamino)-methyl]imidazol-1-ylmethyl}-3′-fluorobiphenyl-2-carboxylic acid]",Δ % M + 28 (increase relative to time zero),2 weeks at 40° C.,about 0.30%
same,Δ % M − 28 (increase relative to time zero),2 weeks at 40° C.,about 0.38%
same,"% M + 28 (ethyl ester imidazole impurity, HPLC area percentage)",[7],0.40%
same,"% M − 28 (acid dihydroimidazole impurity, HPLC area percentage)",[7],0.47%
same,Δ % M + 28 (increase relative to time zero),[7],0.30%
same,Δ % M − 28 (increase relative to time zero),[7],0.38%
same,"% M + 28 (ethyl ester imidazole impurity, HPLC area percentage)",[8],0.44%
same,"% M − 28 (acid dihydroimidazole impurity, HPLC area percentage)",[8],0.61%
same,Δ % M + 28 (increase relative to time zero),[8],0.34%
same,Δ % M − 28 (increase relative to time zero),[8],0.52%
same,"% M + 28 (ethyl ester imidazole impurity, HPLC area percentage)","T = 0, 40° C., listed as Ex. 2",0.10%
same,"% M − 28 (acid dihydroimidazole impurity, HPLC area percentage)","T = 0, 40° C., listed as Ex. 2",0.09%
